Data as given in patent US12410124B2 (priority 2019, dated 2025).
Where two headings read alike, the source gives them in different places.

Assays:
[1] = system: substantia nigra pp38; assay: Substantia nigra pp38 protein expression in MPTP Parkinson's disease model mouse (immunofluorescence); format: in vivo; conditions: percentage of mean intensity of blank control group, gavage 21 days after MPTP modeling
Method: (§1) Neurotoxins can be used to establish PD animal models. Currently, 1-methyl-4-phenyl-1,2,3,6-tetrahydropyridine (MPTP) is the sole synthetic toxin which is recognized to induce PD symptoms in human and non-human primates and in mice. Using MPTP subacute modeling method, C57BL/6J male mice were intraperitoneally injected with MPTP 30 mg/kg, once a day for 5 consecutive days. The experiment animals were divided into blank control group, MPTP model group, and compound treatment group. For the […] compound treatment group, the compound was administrated by gavage for 21 consecutive days after the completion of modeling; for the MPTP model group, the normal saline was administrated by gavage for 21 consecutive days after the completion of modeling; and for the blank control group, the normal saline was first intraperitoneally injected for 5 days, and then administrated by gavage for 21 days.
(§2) The p38 mitogen-activated protein kinase (p38 MAPK) is expressed in both neurons and glial cells, and is the intersection point of neuron-glial cell network information regulations. The activation of p38 signaling pathway is an important initiator of neuronal degeneration, which continuously induces the apoptosis of dopaminergic neurons in multiple ways. It has become a research hotspot for the treatment of PD. Studies have shown that the protective mechanism of CAPE against the death of primary cultured cerebellar granule neurons induced by glutamate lies in inhibiting the activation of p38 phosphorylation and in turn inhibiting the activation of the caspase 3 apoptotic pathway to prevent neuronal apoptosis. Therefore, the MPTP-induced PD mouse model can be used to investigate the inhibitory effect of the target compounds on the activation of p38 phosphorylation on the overall animal level.
(§3) Half of experiment mice in each group were taken to separate the midbrain after perfusion and fixation. The tissue was trimmed, and the substantia nigra-striatum area was taken to prepare paraffin sections. The double immunofluorescence staining for TH and phosphorylated p38 was performed to observe the coexpression of TH and phosphorylated p38, for the statistics of the change in the phosphorylated p38 protein expression. The experiment included blank control group, MPTP model group, positive control group (caffeic acid phenethyl ester, CAPE), prototype control group (styryl sulfone compounds 3B, 3C, 3D, and 3G, whose structures are shown as above), and target compound group.

[2] = system: GCLC; assay: Midbrain GCLC expression in MPTP Parkinson's disease model mouse (western blot); format: in vivo; conditions: for Expression (GCLC/GAPDH): midbrain, MPTP Parkinson's disease model mouse, western blot
Method: as §1
Oxidative stress is an important pathogenic mechanism of PD. Dopaminergic neurons are more sensitive to oxidative stress and are more susceptible to oxidative stress damage. Glutathione (GSH) is an important antioxidant substance in the cell, and glutamate cysteine ligase (GCL) is the rate-limiting enzyme for GSH synthesis, which is composed of catalytic subunit (GCLC) and regulatory subunit (GCLM). The increase of GCLC expression can promote the synthesis of GSH and enhance the ability of tissue cells against oxidative stress. GCL, a phase II enzyme, plays an important protective role by catalyzing the conversion of free radicals into non-toxic products and increasing their water solubility to facilitate the elimination of free radicals, and maintain the redox balance in the body. It plays an important role in the process of protecting cells against oxidative stress damage. The activation of p38 protein phosphorylation has a negative regulatory effect on phase II enzymes. […] Using GCLC as an indicator, the inhibitory effect of the target compounds on MPTP-induced oxidative stress damage in PD mice can be investigated.
GCLC is expressed in astrocytes, microglial cells, and neurons. The total proteins of the midbrain tissue of mice in each experiment group were extracted, to determine the expression of phase II enzyme GCLC in the midbrain of mice by western blot using GAPDH as the internal reference. The experiment included blank control group, MPTP model group, positive control group (caffeic acid phenethyl ester, CAPE), prototype control group (styryl sulfone compounds 3B, 3C, 3D), and 3G, whose structures are shown as above), and target compound group.

[3] = system: midbrain pp38; assay: Midbrain pp38 protein expression in MPTP Parkinson's disease model mouse (western-blotting); format: in vivo; conditions: midbrain total protein, GAPDH internal reference, gavage 21 days after MPTP modeling
Method: as §1, §2
Half of experiment mice in each group were taken to extract the total midbrain protein, and the change in the midbrain phosphorylated p38 protein expression was determined by western-blotting using GAPDH as the internal reference. The experiment included blank control group, MPTP model group, positive control group (caffeic acid phenethyl ester, CAPE), prototype control group (styryl sulfone compounds 3B, 3C, 3D, and 3G, whose structures are shown as above), and target compound group.

[4] = system: substantia nigra TH; assay: Substantia nigra TH expression in MPTP Parkinson's disease model mouse (immunofluorescence); format: in vivo; conditions: percentage of mean intensity of blank control group, gavage 21 days after MPTP modeling
Method: as §1
The main cause of PD lies in the pathological changes in the substantia nigra-striatum projection system of the brain and the progressive degeneration and loss of dopaminergic neurons. Tyrosine hydroxylase (TH) is the first enzyme in the biosynthesis of catecholamine neurotransmitters, as well as the first rate-limiting enzyme in the dopamine synthesis. It plays an important role in the synthesis and metabolism of the neurotransmitter DA. The TH in PD animal models and patients has a wide range of abnormal changes, from the gene expression to the enzyme protein content and enzyme activity. The detection of the TH expression in the midbrain and substantia nigra of PD model mice can be used to evaluate the neuroprotective activity of the compound.
as §3, with “TH” for “double”, “staining” for “staining for TH and phosphorylated p38”, “performed” for “performed to observe the coexpression of TH and phosphorylated p38, for the statistics of the change”, “brain sections of mice in each group. […]” for “phosphorylated p38 protein expression.”

[5] = system: primary glial cells; assay: Inhibition of the NO release of primary glial cells induced by LPS; format: cell-based, rat; conditions: for inhibition at 5 µM / inhibition at 10 µM / inhibition at 20 µM / inhibition at 2 µM: Rattus norvegicus, Glial cell, read-out: NO inhibition (%)
Source text: Lipopolysaccharide (LPS) is a main component of the cell wall of Gram-negative bacteria. It is a potent inflammatory factor that can directly activate gliocytes, and the activated gliocytes secrete a large amount of inflammation mediators such as tumor necrosis factor, interleukin, and nitric oxide, thus causing inflammatory reactions and oxidative stress reactions and eventually leading to neuronal denaturation and death. In recent years, the targeted injection of LPS into rat substantia nigra or striatum to induce neuroinflammation can successfully establish PD models, which can simulate most of the clinical manifestations and pathological features of PD, and are used for the study on the neuroinflammation mechanism associated with PD. LPS-induced primary glial cell PD inflammation model is suitable for the preliminary anti-neuroinflammation screening for neuroprotective agents. LPS is used to directly activate primary glial cells to simulate the pathogenesis mechanism of neuroinflammation, and the inhibitory activity of the target compounds on the inflammatory response of primary glial cells can be investigated.
The materials were taken from the brain tissue of fetal rat, for primary glial cell culture. At 7 to 10 days of the culture, LPS was added for the activation of nitric oxide (NO) release in glial cells. When a target compound was added, the reduction value for NO content in the cell culture medium was measured, to evaluate the anti-neuroinflammation activity of the compound. The experiment included blank control group, LPS model group, positive control group (caffeic acid phenethyl ester, CAPE), prototype control group (styryl sulfone compounds 3B, 3C, 3D, and 3G, the structures of which compounds are shown as above), and target compound group.

Compound | Expression (Immunofluorescence intensity %) [1] [%] | midbrain GCLC expression compared with the styryl sulfone prototype compounds [2] | Expression (GCLC/GAPDH) [2] | Expression (pp38/GAPDH) [3] | Expression (Immunofluorescence intensity %) [4] [%] | NO inhibitory rate compared with the styryl sulfone prototype compounds [5] | inhibition at 5 µM ([5]; 5 μM) [%] | inhibition at 10 µM ([5]; 10 μM) [%] | inhibition at 20 µM ([5]; 20 μM) [%] | inhibition at 2 µM ([5]; 2 μM) [%] | inhibition at 5 µM [5] [%] | inhibition at 10 µM [5] [%] | inhibition at 20 µM [5] [%] | inhibition at 2 µM [5] [%] | NO inhibition (%) ([5]; 2 μM) | NO inhibition (%) ([5]; 5 μM) | NO inhibition (%) ([5]; 10 μM)
CCN(CC)C(=O)Oc1ccc(/C=C/S(=O)(=O)Cc2ccc(C(F)(F)F)cc2)cc1OC(=O)N(CC)CC [Compound B1-1, (E)-4-{2-[(4-trifluoromethylphenyl)mesyl]ethenyl}-1,2-phenylenebis(diethylcarbamate)] | 76.35 ± 21.90 | significantly higher | 1.17 ± 0.06 | 0.37 ± 0.12 | 95.86 ± 4.43 | equivalent or higher inhibitory rate | 21.6 ± 2.18 | 42.8 ± 3.56 | 97.7 ± 2.04 | – | – | – | – | – | – | – | –
CCN(CC)C(=O)Oc1ccc(/C=C/S(=O)(=O)Cc2ccc(Cl)cc2)cc1OC(=O)N(CC)CC [Compound D1-1, (E)-4-{2-[(4-chlorophenyl)mesyl]ethenyl}-1,2-phenylenebis(diethylcarbamate)] | 57.50 ± 15.33 | significantly higher | 1.29 ± 0.05 | 0.50 ± 0.13 | 99.19 ± 3.67 | equivalent or higher inhibitory rate | 61.4 ± 2.77 | 84.5 ± 7.56 | – | 24.8 ± 4.08 | – | – | – | – | – | – | –
Cc1ccc(S(=O)(=O)Oc2ccc(CS(=O)(=O)/C=C/c3ccc(OS(=O)(=O)c4ccc(C)cc4)c(OC(=O)N(C)S(=O)(=O)c4ccc(C)cc4)c3)cc2)cc1 [Compound S6-6, (E)-2-(N-methyl-N-p-tosylcarbamoyloxy)-4-{2-[(4-p-tosyloxyphenyl)mesyl]ethenyl}phenyl p-toluenesulfonate] | 105.30 ± 10.08 | – | 1.29 ± 0.08 | 0.27 ± 0.05 | 96.01 ± 7.32 | – | – | – | – | – | 30.2 ± 2.97 | 59.2 ± 3.49 | 85.1 ± 4.41 | – | – | – | –
CNC(=O)Oc1ccc(/C=C/S(=O)(=O)CC(Cl)c2ccc(Cl)c([N+](=O)[O-])c2)cc1O (stereo not drawn) [Compound E2-2, (E)-4-{2-[2-chloro-2-(4-chloro-3-nitrophenyl)ethylsulfonyl]ethenyl}-2-hydroxyphenyl-N-methylcarbamate] | 96.01 ± 10.37 | – | 1.48 ± 0.11 | 0.43 ± 0.06 | 93.12 ± 4.56 | – | – | – | – | – | 20.3 ± 4.73 | 36.8 ± 6.11 | 68.9 ± 3.75 | – | – | – | –
O=C(NC(=O)C(F)(F)F)Oc1ccc(/C=C/S(=O)(=O)C(F)(F)c2ccc(Oc3ccccn3)cc2)cc1OC(=O)C(F)(F)C(F)(F)F [Compound L1-4, (E)-5-{2-[(4-[pyridin-2-yl-oxy]phenyl)difluoromethylsulfonyl]ethenyl}-2-[N-(2,2,2-trifluoroacetyl)carbamoyloxy]phenyl-2,2,3,3,3-pentafluoropropionate] | 62.93 ± 17.51 | – | 0.96 ± 0.10 | 0.28 ± 0.04 | 83.22 ± 5.98 | – | 50.9 ± 3.72 | 72.3 ± 4.8 | – | 26.7 ± 6.93 | – | – | – | – | – | – | –
Cc1ccc(N2CCN(C(=O)Oc3ccc(/C=C/S(=O)(=O)CCCC(c4ccc(OC(=O)CN(C)C)cc4)N(C)C)cc3OC(=O)N(C)c3ccccc3)CC2)cc1 (stereo not drawn) [Compound P1-1, (E)-4-{2-[4-(dimethylamino)-4-(4-(N,N-dimethylglycyloxy)phenyl)butylsulfonyl]ethenyl}-2-(N-methyl-N-phenylcarbamoyloxy)phenyl-4-(p-methylphenyl)piperazine-1-carboxylate] | 99.55 ± 8.46 | – | 0.98 ± 0.06 | 0.50 ± 0.09 | 88.13 ± 3.43 | – | – | – | – | – | 40 ± 2.66 | 78.4 ± 3.96 | – | 25.9 ± 3.54 | – | – | –
CCOC(CS(=O)(=O)/C=C/c1ccc(OC(C)=O)c(OC(=O)Nc2ccc(NC)cc2)c1)C(OCC)c1ccc(OCc2ccccc2)c(O)c1 (stereo not drawn) [Compound H2-4, (E)-4-{2-[3-(4-benzyloxy-3-hydroxyphenyl)-2,3-diethoxypropyl]sulfonylethenyl}-2-[N-(4-methylaminophenyl)carbamoyloxy]phenyl acetate] | 103.17 ± 12.58 | – | 1.21 ± 0.08 | 0.43 ± 0.05 | 95.20 ± 6.06 | – | 50.1 ± 5.37 | 85.4 ± 4.9 | – | 32.2 ± 4.49 | – | – | – | – | – | – | –
(E)-2-[(methylamino)methoxy]-4-{2-[1-(4′-nitro-[1,1′-biphenyl]-4-yl)ethylsulfonyl]ethenyl}phenylcarbamate [Compound M1-3] | 100.22 ± 14.12 | – | 0.82 ± 0.07 | 0.42 ± 0.06 | 84.07 ± 3.19 | – | – | – | – | – | – | – | – | – | 23.93 ± 4.67 | 47.42 ± 4.43 | 73.41 ± 4.83
